Assay results: ChEMBL document CHEMBL1833973, “Biological evaluation and docking studies of natural isocoumarins as inhibitors for human kallikrein 5 and 7” (Bioorg Med Chem Lett, 2011)
The source made the active and inactive calls. The calls are words filed in the database; no cut-off is given here.

Assays:
[1] = molecular target: T1, Kallikrein-5 (Homo sapiens, UniProt Q9Y337); assay: Inhibition of human kallikrein 5 using Abz-KLRSSKQ-EDDnp as substrate by spectrofluorimetric assay
T1 sequence (Q9Y337 whole entry): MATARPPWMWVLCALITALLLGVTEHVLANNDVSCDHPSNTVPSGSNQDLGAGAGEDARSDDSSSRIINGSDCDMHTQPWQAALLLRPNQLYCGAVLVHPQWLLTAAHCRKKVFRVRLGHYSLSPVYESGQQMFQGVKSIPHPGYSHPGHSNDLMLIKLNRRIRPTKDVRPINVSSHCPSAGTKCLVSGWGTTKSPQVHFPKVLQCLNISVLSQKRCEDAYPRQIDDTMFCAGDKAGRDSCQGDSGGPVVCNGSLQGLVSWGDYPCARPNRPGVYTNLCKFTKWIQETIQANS

[2] = molecular target: T1, Kallikrein-5; assay: Inhibition of human kallikrein 5 using Abz-KLRSSKQ-EDDnp as substrate by Lineweaver-Burk plot analysis
[3] = molecular target: T2, Kallikrein-7 (Homo sapiens, UniProt P49862); assay: Inhibition of human kallikrein 7 using Abz-KLYSSKQ-EDDnp as substrate by spectrofluorimetric assay
Target sequence in this assay (P49862 whole entry): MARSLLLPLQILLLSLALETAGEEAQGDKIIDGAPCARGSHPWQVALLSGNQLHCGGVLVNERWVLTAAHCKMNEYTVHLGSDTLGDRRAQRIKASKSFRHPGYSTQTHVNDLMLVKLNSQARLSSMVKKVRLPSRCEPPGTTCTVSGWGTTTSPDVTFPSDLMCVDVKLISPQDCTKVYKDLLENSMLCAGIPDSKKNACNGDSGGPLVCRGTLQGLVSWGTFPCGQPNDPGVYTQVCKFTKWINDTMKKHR

[4] = molecular target: T2, Kallikrein-7; assay: Inhibition of human kallikrein 7 using Abz-KLYSSKQ-EDDnp as substrate by Lineweaver-Burk plot analysis
Target sequence in this assay (P49862 whole entry): as above

[5] = molecular target: T2, Kallikrein-7; assay: Competitive inhibition of human kallikrein 7 using Abz-KLYSSKQ-EDDnp as substrate by Lineweaver-Burk plot analysis
Target sequence in this assay (P49862 30-253 limits assumed): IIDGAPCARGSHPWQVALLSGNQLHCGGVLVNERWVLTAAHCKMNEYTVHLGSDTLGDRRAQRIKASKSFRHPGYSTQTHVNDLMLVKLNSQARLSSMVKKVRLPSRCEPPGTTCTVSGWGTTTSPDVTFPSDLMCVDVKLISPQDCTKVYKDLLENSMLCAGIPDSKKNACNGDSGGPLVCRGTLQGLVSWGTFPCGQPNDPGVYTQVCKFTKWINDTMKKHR

With COc1cc2c(OC)c3cc(C)oc(=O)c3c(O)c2c(O)c1-c1c(OC)cc2c(OC)c3cc(C)oc(=O)c3c(O)c2c1O the IC50 [1] was 72.9 µM, the Ki [2] was 24.4 µM and the IC50 [3] was 112 µM. For the same compound, the Ki [4] was 12.2 µM and the inhibition [5] was “Active”.
With COc1cc2cc3c(c(O)c2c(O)c1-c1c(OC)cc2cc4c(c(O)c2c1O)C(=O)O[C@H](C)C4)C(=O)O[C@H](C)C3 [VIOXANTHIN] the IC50 [1] was 53.7 µM, the Ki [2] was 22.9 µM and the IC50 [3] was 135 µM. It also gave a Ki [4] of 37.2 µM.
For COc1cc(O)c2c(O)c3c(=O)oc(C)cc3c(OC)c2c1 [PAEPALANTINE], the IC50 [1] was 367 µM, the Ki [2] was 47.5 µM and the IC50 [3] was 166 µM. It also gave a Ki [4] of 70.7 µM.
